Source: article PMC7576996, “Antiparasitic Behavior of Trifluoromethylated Pyrazole 2-Amino-1,3,4-thiadiazole Hybrids and Their Analogues: Synthesis and Structure-Activity Relationship” (Frontiers in Pharmacology, 2020)

Assays:
[1] = Cytotoxicity assay in LLCMK2 epithelial cells (MTT, 72 h); format: cell-based; conditions: Macaca mulatta, LLCMK2 kidney epithelial cells, pH 7.2, LLCMK2, 50% inhibition of growth
Experimental: (§1) All the novel trifluoromethylated pyrazoles derivatives 2a–f, 3a–f, and 4a–f were evaluated against the promastigote form of L. amazonensis and the epimastigote form of T. cruzi. The results are reported as the concentration causing a 50% inhibition in cell growth (IC50). Additionally, the toxicity of compounds was evaluated against two different cell lines: epithelial cell LLCMK2 and macrophages J774A1. The antiproliferative and cytotoxic activities are shown in Table 2 , as well as the calculated selectivity index (SI).
(§2) 2.4. Antiproliferative activity […]
(§3) Cytotoxicity activity was determined in LLCMK2 (epithelial cells of kidney of Macaca
(§4) mulatta) cells and J774A1 macrophages. LLCMK2 (epithelial cells of kidney of Macaca mulatta) cells
(§5) were cultured in Dulbecco’s modified Eagle’s medium (DMEM, pH 7.2) supplemented with 10% FBS
(§6) at 37 °C in a 5% CO2 atmosphere. J774A1 macrophages were cultured in RPMI-1640 (pH 7.2) medium
(§7) supplemented with 10% FBS at 37 °C in a 5% CO2 atmosphere.
(§8) 2.4.2. Dilution of compounds
(§9) Stock solutions of the compounds were prepared in DMSO and then diluted in the respective
(§10) medium. The groups (controls and treated) were tested with DMSO concentrations below 1%, with
(§11) 2.4.3. Antiproliferative assay […]
(§12) 2.4.4. Cytotoxicity assay
(§13) LLCMK2 cells (2.5 × 10^5 cells/mL) suspension was prepared in DMEM medium supplemented
(§14) with 10% FBS and added to 96-well plates. Then, the plates were incubated at 37 °C in a
(§15) CO2 atmosphere for 24h to obtain confluent cell growth. After incubation, cells were treated or not
(§16) with different concentrations of compounds diluted in DMEM for 72 h. Macrophage (5 × 10^5 cells/mL)
(§17) suspension was prepared in RPMI-1640 medium supplemented with 10% FBS and added to 96-well
(§18) plates. Then, the plates were incubated at 37 °C in a CO2 atmosphere for 24h to obtain confluent cell
(§19) growth. After incubation, cells were treated or not with different concentrations of compounds diluted
(§20) in RPMI-1640 for 48h. After treatment, medium was removed and cells were incubated with MTT (2
(§21) mg/mL) for 4h. Then, DMSO was added for solubilization of the formazan and analyzed with a reading
(§22) microplate reader (BIO-TEK PowerWave XS spectrophotometer) at 392 nm. The percentage of viable
(§23) cells was calculated in relation to the control to determine the cytotoxic concentration to 50% of the […]

[2] = tested on: epimastigote form of Trypanosoma cruzi; test: Antiproliferative assay, epimastigote form of Trypanosoma cruzi (XTT, 96 h); format: cell-based; conditions: for SI T-M, selectivity index (Macrophages CC50/T. cruzi IC50): J774A1 vs epimastigotes; for SI T-E, selectivity index (Epithelial CC50/T. cruzi IC50): LLCMK2 vs epimastigotes; for IC50: Trypanosoma cruzi, epimastigote form, 96 h, mean ± standard deviation, read-out: T. cruzi IC50
Experimental: as §1
(§24) 2.4. Antiproliferative activity
(§25) Promastigotes forms of Leishmania amazonensis (strain WHOM/ BR/75/JOSEFA) were
(§26) cultured in Warren medium (brain heart infusion, hemin, and folic acid; pH 7.4) supplemented with
(§27) 10% fetal bovine serum (FBS) at 25 °C. Epimastigote forms of Trypanosoma cruzi (Y strain) were
(§28) cultured in LIT medium (liver infusion tryptose; hemim, and folic acid; pH 7.4) supplemented with
as §3, §4, §5, §6, §7, §8, §9, §10
(§29) 2.4.3. Antiproliferative assay
(§30) Promastigote forms (1 × 10^6 parasites/mL) were cultured in 96-well plates in the presence and
(§31) absence of different concentrations of compounds diluted in Warren medium supplemented with 10%
(§32) FBS and incubated for 72h. Epimastigote forms (1 × 10^6 parasites/mL) were cultured in 96 -well plates
(§33) in the presence and absence of different concentrations of compounds diluted in LIT medium
(§34) supplemented with 10% FBS and incubated for 96h. After treatment, the parasites were incu bated with
(§35) a solution of 2,3 -bis (2 -methoxy -4-nitro -5-sulfophenyl) -2H-tetrazolium -5-carboxanilide (XTT; 0.5
(§36) mg/mL) and phenazine methanesulfonate activator (PMS; 0.06 mg/mL) in PBS for 4h. Then, the
(§37) absorbance was read in a microplate reader (Bio Tek - Power Wave XS) at 450 nm. The percentage of
(§38) viable parasites was calculated in relation to the control in order to determine the concentration that
(§39) inhibits 50% of the protozoa (IC 50).
as §12, §13, §14, §15, §16, §17, §18, §19, §20, §21

[3] = tested on: promastigote form of Leishmania amazonensis; test: Antiproliferative assay, promastigote form of Leishmania amazonensis (XTT, 72 h); format: cell-based; conditions: for SI L-M, selectivity index (Macrophages CC50/L. amazonensis IC50): J774A1 vs promastigotes; for SI L-E, selectivity index (Epithelial CC50/L. amazonensis IC50): LLCMK2 vs promastigotes; for IC50: Leishmania amazonensis, promastigote form, 72 h, mean ± standard deviation, read-out: L. amazonensis IC50
Experimental: as §1, §24, §25, §26, §27, §28, §3, §4, §5, §6, §7, §8, §9, §10, §29, §30, §31, §32, §33, §34, §35, §36, §37, §38, §39, §12, §13, §14, §15, §16, §17, §18, §19, §20, §21

[4] = Cytotoxicity assay in J774A1 macrophages (MTT, 48 h); format: cell-based; conditions: mouse, pH 7.2, J774A1, 50% inhibition of growth
Experimental: as §1, §2, §3, §4, §5, §6, §7, §8, §9, §10, §11, §12, §13, §14, §15, §16, §17, §18, §19, §20, §21, §22, §23

Row | IC50 [2] | melting point | Structure (SMILES) | CC50 at 72 h [1] | SI T-M, selectivity index (Macrophages CC50/T. cruzi IC50) [2] | SI T-E, selectivity index (Epithelial CC50/T. cruzi IC50) [2] | SI L-M, selectivity index (Macrophages CC50/L. amazonensis IC50) [3] | SI L-E, selectivity index (Epithelial CC50/L. amazonensis IC50) [3] | IC50 [3] | CC50 at 48 h [4]
1 | 45.7 ± 5 µM | 226.5 °C | NC(=S)NN=Cc1c(C(F)(F)F)nn(-c2ccccc2)c1-c1ccc([N+](=O)[O-])cc1 [2a, 4-[(2-carbamothioyl-hydrazinylidene)methyl]-3-trifluoromethyl-5-(4-nitrophenyl)-1-phenyl-1H-pyrazole] | 303 ± 5.8 µM | 5.32 | 6.62 | 9.10 | 11.33 | 26.7 ± 1.4 µM | 243 ± 3.6 µM
2 | 37.2 ± 4.8 µM | 188.5 °C | CSC(N)=NN=Cc1c(C(F)(F)F)nn(-c2ccccc2)c1-c1ccc(Cl)cc1 [3c] | 297 ± 6.1 µM | 8.09 | 7.99 | 9.80 | 9.68 | 30.7 ± 2.2 µM | 301 ± 3.9 µM
3 | 26.7 ± 1.4 µM | 239.2 °C | Nc1nnc(-c2c(C(F)(F)F)nn(-c3ccccc3)c2-c2ccc(Br)cc2)s1 [4d, 4-[(2-amino)-1,3,4-thiadiazo-5-yl]-5-(4-Bromophenyl)-3-trifluoromethyl-1-phenyl-1H-pyrazole] | 120 ± 2.5 µM | 5.51 | 4.50 | 10.01 | 8.17 | 14.7 ± 0.9 µM | 147 ± 3.2 µM
4 | 80.8 ± 3.7 µM | 155.2 to 156.1 °C | O=Cc1c(C(F)(F)F)nn(-c2ccccc2)c1-c1ccc([N+](=O)[O-])cc1 [compound 5, 3-trifluoromethyl-4-formyl-5-(4-nitrophenyl)-1-phenyl-1H-pyrazole] | 422 ± 12.3 µM | 3.03 | 5.22 | 3.35 | 5.76 | 73.1 ± 2.8 µM | 245 ± 2.7 µM
5 | 49.2 ± 3.1 µM | 225.37 °C | NC(=S)NN=Cc1c(C(F)(F)F)nn(-c2ccccc2)c1-c1ccc(Cl)cc1 [2c, 4-[(2-carbamothioyl-hydrazinylidene)methyl]-5-(4-chlorophenyl)-3-trifluoromethyl-1-phenyl-1H-pyrazole] | 377 ± 5 µM | 8.17 | 7.66 | 9.02 | 8.45 | 44.6 ± 6.2 µM | 402 ± 8.3 µM
